These results are taken from article PMC6222646, “HIV-1 Integrase-Targeted Short Peptides Derived from a Viral Protein R Sequence” (Molecules : A Journal of Synthetic Chemistry and Natural …, 2018).

Assay [1] has as its target T1, HIV-1 IN (Human immunodeficiency virus type 1 group M subtype B, UniProt P12497). Description: HTRF-based IN multimerization assay. It is filed as biochemical. Details: WT HIV-1 IN recombinant proteins with His or FLAG tags; made in house; host or cells: Escherichia coli. Conditions: 100 µM peptide. As for the experimental part:
WT HIV-1 IN recombinant proteins with His or FLAG tags were expressed in Escherichia coli and purified as described previously. The His6–tagged IN construct was purified by loading the cell lysate onto a Nickel-Sepharose column (GE Healthcare, Chicago, IL, USA) and eluting bound integrase with an imidazole gradient in a 50 mM HEPES (pH 7.5) buffer containing 1 M NaCl, 7.5 mM CHAPS, 2 mM beta-mercaptoethanol. Peak fractions were pooled, diluted and loaded onto a heparin column (GE Healthcare), and integrase was eluted with an increasing NaCl gradient in a 50 mM HEPES (pH 7.5) buffer containing 7.5 mM CHAPS and 2 mM beta-mercaptoethanol. The FLAG-tagged IN construct was purified by loading the ammonium sulfate precipitate of cell lysate onto a phenyl-Sepharose column (GE Healthcare) and eluting bound integrase with a decreasing ammonium sulfate gradient in a 50 mM HEPES (pH 7.5) buffer containing 200 mM NaCl, 7.5 mM CHAPS, 2 mM beta-mercaptoethanol. Peak fractions were pooled and loaded onto a heparin column (GE Healthcare), and integrase was eluted with an increasing NaCl gradient in a 50 mM HEPES (pH 7.5) buffer containing 7.5 mM CHAPS and 2 mM beta-mercaptoethanol. […] The HTRF signal was recorded using a PerkinElmer EnSpire multimode plate reader.
For orientation: Time-resolved FRET reads energy transfer from a long-lived donor to a nearby acceptor.

The target in assay [2] is T2, HIV-1 integrase (IN) (Human immunodeficiency virus type 1 group M subtype B, UniProt P12497). The experiment in a line: In vitro integrase catalytic assay, strand transfer (ST). The format is biochemical. Conditions: 400 nM IN, 20 nM 32P-labeled pre-cleaved 19T/21B DNA, 37 °C, 2 h. As for the experimental part: (§1) IN reactions were performed as previously described. […] Reactions were performed at 37 °C (2 h) and quenched by the addition of an equal volume of loading buffer (formamide containing 1% sodium dodecyl sulfate, 0.25% bromophenol blue, and xylene cyanol). Reaction products were separated in 16% polyacrylamide denaturing sequencing gels. Dried gels were visualized using a Typhoon 8600 instrument (GE Healthcare, Chicago, IL, USA). Densitometric analyses were performed using ImageQuant 5.1 software (GE Healthcare, Chicago, IL, USA). Data analyses (linear regression, 50% inhibitory concentration [IC50] determination, standard deviation [SD]) were performed from at least 3 independent determinations using Prism 5.0c software from GraphPad (La Jolla, CA, USA). To assay 3′-P inhibitory potency, reactions were carried out with [γ-^32P]-labeled full-length oligonucleotide 21T ([…]) annealed to the complementary oligonucleotide 21B ([…]). Formation of the shorter processed 19T products was monitored and quantified to assess enzyme performance and inhibitor potency. The ST reactions were carried out with the [γ-^32P]-labeled pre-cleaved oligonucleotide 19T ([…]) annealed to the complementary oligonucleotide 21B ([…]) and formation of integration products (longer and slower migrating than the starting 19T substrate) was monitored to assess enzyme performance and inhibitor potency.

The target in assay [3] is T2, HIV-1 integrase (IN). The experiment in a line: In vitro integrase catalytic assay, 3'-processing (3'-P). Particulars: 400 nM IN, 20 nM 32P-labeled 21T/21B DNA, 37 °C, 2 h. The format is biochemical. As for the experimental part:
as §1

Another assay concerns the target IN-DNA complex (Human immunodeficiency virus type 1 group M subtype B, UniProt P12497). Description: IN-DNA complex formation by fluorescence anisotropy. Particulars: IN (400 nM) preincubated with peptide, 10 nM DNA. It is filed as binding, HIV-1. As for the experimental part:
(§2) DNA binding was measured using a plate-based assay following fluorescence polarization of a fluorescent 21-mer duplex DNA substrate (21T/21B duplex oligonucleotide) with an AlexaFluor 488 modification at the 5′-end of the 21T oligonucleotide. Peptide or DMSO (control, without peptide) were incubated at room temperature for 5 min in the IN-activity buffer in the absence or the presence of IN (400 nM). After addition of the DNA (10 nM), fluorescence anisotropy was measured every 30 s for 30 min using an Envision plate reader (Perkin Elmer, Waltham, MA, USA).
In general terms: In fluorescence polarisation assays a small probe gives low polarisation when free and higher when bound to something large.

Assay [4] has as its system 21-mer duplex DNA substrate (21T/21B). Description: Binding to DNA substrate alone by fluorescence anisotropy. Conditions: absence of IN; concentrations up to 37 µM. As for the experimental part: as §2
The target of assay [5] is T1, HIV-1 IN. Description: UV photo-crosslinking to IN with Western blot detection. It is filed as binding. Particulars: 15 (111 µM), IN (3.2 µM). As for the experimental part: Peptide 15 (111 µM), containing a photo-reactive Bpa group and a biotin linked to its amino terminus, was incubated for 2 h at 37 °C in the absence or the presence of IN (3.2 µM) before UV irradiation (5 min at […]). After adding 2 × 10 µL of loading buffer, samples were heat-denatured at 95 °C (5 min). Products were separated on 16% SDS-PAGE and transferred to a PVDF membrane using an iBlot system (Invitrogen, Carlsbad, CA, USA). […] Reading was performed using an Odyssey® Infrared Imaging System (LI-COR Biotechnology, Lincoln, NE, USA).

In the next assay the test system is IN. Set-up: method as in PMID 17490682. Particulars: read-out: IN ST-inhibitory potency IC50; cited from earlier work.

Several values for one entry are separate records, joined by “and”; a condition that tells them apart may be missing. Identical values can stand only once. Where a SMILES comes first, the peptide text is derived from it. [ ]: non-standard residue; d: D form. Bpa = N[C@@H](Cc1ccc(C(=O)c2ccccc2)cc1)C(=O)O

What is called IC50 is the concentration at which inhibition is half-maximal. As for `CC[C@H](C)[C@H](NC(=O)[C@H](CCCNC(=N)N)NC(=O)[C@H](Cc1ccccc1)NC(=O)[C@H](Cc1c[nH]cn1)NC(=O)[C@@H](NC(=O)[C@@H](N)Cc1ccccc1)[C@@H](C)CC)C(=O)NCC(=O)O` [Peptide 1a, FIHFRIG] (H-FIHFRIG-OH), the “Induction of higher-order IN multimerization (HTRF signal)” value on HIV-1 IN [1] is given as “did not induce higher-order IN multimerization”. For the same molecule, the IC50 was 1 µM and 1.3 µM on HIV-1 integrase (IN) [2]; 17.6 ± 1.2 µM against HIV-1 integrase (IN) [3]. Besides, the “Effect on IN-DNA complex formation (fluorescence polarization)” value on IN-DNA complex is listed as “did not block the IN–DNA interactions, but rather promoted IN–DNA complex formation”. Also, in assay [4], the “Binding to DNA substrate alone” value is “no detectable binding”.
Regarding `CC[C@H](C)[C@H](NC(=O)[C@H](CCCNC(=N)N)NC(=O)[C@H](Cc1ccc(C(=O)c2ccccc2)cc1)NC(=O)[C@H](Cc1c[nH]cn1)NC(=O)[C@@H](NC(=O)[C@@H](N)Cc1ccccc1)[C@@H](C)CC)C(=O)NCC(=O)O` [Peptide 11a, FIHBRIG] (H-FIH[Bpa]RIG-OH), the concentration for half-maximal inhibition (IC50) stood at 4.2 ± 0.7 µM against HIV-1 integrase (IN) [2] and 34 ± 6 µM at HIV-1 integrase (IN) [3].
The like results for `CC[C@H](C)[C@H](NC(=O)[C@H](CCCNC(=N)N)NC(=O)[C@H](Cc1ccccc1)NC(=O)[C@H](Cc1ccc(C(=O)c2ccccc2)cc1)NC(=O)[C@@H](NC(=O)[C@@H](N)Cc1ccccc1)[C@@H](C)CC)C(=O)NCC(=O)O` [Peptide 12a, FIBFRIG] (H-FI[Bpa]FRIG-OH) were, in that order, 2.2 ± 0.6 µM and 6.5 ± 0.9 µM.
The like results for `CC[C@H](C)[C@H](NC(=O)[C@H](CCCNC(=N)N)NC(=O)[C@H](Cc1ccccc1)NC(=O)[C@H](Cc1c[nH]cn1)NC(=O)[C@H](Cc1ccc(C(=O)c2ccccc2)cc1)NC(=O)[C@@H](N)Cc1ccccc1)C(=O)NCC(=O)O` [Peptide 13a, FBHFRIG] (H-F[Bpa]HFRIG-OH) were, in that order, 20 ± 3 µM and 37 ± 5 µM.
For the molecule `CC[C@H](C)[C@H](NC(=O)[C@H](CCCNC(=N)N)NC(=O)[C@H](Cc1ccccc1)NC(=O)[C@H](Cc1c[nH]cn1)NC(=O)[C@@H](NC(=O)[C@@H](N)Cc1ccc(C(=O)c2ccccc2)cc1)[C@@H](C)CC)C(=O)NCC(=O)O` [Peptide 14a, BIHFRIG] (H-[Bpa]IHFRIG-OH), the figures for the half-inhibitory concentration (IC50) against HIV-1 integrase (IN) [2] and at HIV-1 integrase (IN) [3] were 2.1 ± 0.3 µM and 7.2 ± 1.2 µM, respectively.
As to Biotin-linker-BIHFRIG [Peptide 15], on HIV-1 IN [5], the “Covalent crosslinking to IN upon UV irradiation” value is “covalent adducts of 15 with IN”. In addition, the concentration for half-maximal inhibition (IC50) on HIV-1 integrase (IN) [2] is 2.3 ± 0.3 µM; at HIV-1 integrase (IN) [3], 32 ± 7 µM.
For the molecule QQLLFIHFRIGCQHS [Vpr (65–79)], the IC50 in the assay with IN was 14 µM.
